# Test results taken from ChEMBL document CHEMBL5136977, “Discovery of 1-(5-(1H-benzo[d]imidazole-2-yl)-2,4-dimethyl-1H-pyrrol-3-yl)ethan-1-one derivatives as novel and potent bromodomain and extra-terminal (BET) inhibitors with anticancer efficacy” (Eur J Med Chem, 2022).
# Activity calls are given as the source filed them. The calls are words filed in the database; no cut-off is given here.
# Tests used:
# [1] = Half life in Sprague-Dawley rat at 10 mg/kg, po by LC-MS/MS analysis; type: ADME, organism-based; details: in vivo
# [2] = Oral bioavailability in Sprague-Dawley rat at 10 mg/kg by LC-MS/MS analysis; type: ADME, organism-based; details: in vivo
# MV4-11 [3] = experiment: Induction of cell cycle arrest in human MV4-11 cells assessed as accumulation of cells at G2/M phase at 200 nM incubated for 48 hrs by propidium iodide staining based flow cytometric analysis (reference value: 8%); type: functional
# HL-60(TB) = experiment: Antiproliferative activity against human HL-60(TB) cells assessed as cell growth inhibition measured after 72 hrs by CellTiter-Glo assay; type: functional
# [4] = Induction of cell apoptosis in human MV4-11 cells assessed as late apoptotic cells at 500 nM incubated for 48 hrs by Annexin V-FITC/Propidium iodide staining based flow cytometry analysis (reference value: 1.99%); type: functional
# [5] = Tmax in Sprague-Dawley rat at 10 mg/kg, po by LC-MS/MS analysis; type: ADME, organism-based; details: in vivo
# MV4-11 [6] = experiment: Induction of cell cycle arrest in human MV4-11 cells assessed as downregulation of c-myc expression incubated for 24 hrs by Western blotting analysis; type: functional, cell-based; details: dose 62.5-250 nM, DDE = dose-dependent effect
# [7] = Induction of cell apoptosis in human MV4-11 cells assessed as late apoptotic cells at 200 nM incubated for 48 hrs by Annexin V-FITC/Propidium iodide staining based flow cytometry analysis (reference value: 1.99%); type: functional
# [8] = Metabolic stability in monkey liver assessed as intrinsic clearance incubated for 1 hr by LC-MS/MS analysis; type: ADME, tissue-based, Macaca mulatta; details: rhesus monkey, read-out: CLH
# MV4-11 [9] = experiment: Induction of cell cycle arrest in human MV4-11 cells assessed as accumulation of cells at S phase at 200 nM incubated for 48 hrs by propidium iodide staining based flow cytometric analysis (reference value: 26.29%); type: functional
# [10] = Induction of cell apoptosis in human MV4-11 cells assessed as early apoptotic cells at 500 nM incubated for 48 hrs by Annexin V-FITC/Propidium iodide staining based flow cytometry analysis (reference value: 1.42%); type: functional
# [11] = Volume of distribution in Sprague-Dawley rat at 1 mg/kg, iv by LC-MS/MS analysis; type: ADME, organism-based; details: in vivo
# [12] = Toxicity in BALB/c nude mouse xenografted with human MV4-11 cells assessed as effect on body weight at 20 to 80 mg/kg, po QD administered for 28 consecutive days; type: organism-based; details: in vivo, 672 h, dose 20-80 mg/kg, time 28 day
# [13] = Induction of cell apoptosis in human MV4-11 cells assessed as early apoptotic cells at 200 nM incubated for 48 hrs by Annexin V-FITC/Propidium iodide staining based flow cytometry analysis (reference value: 1.42%); type: functional
# [14] = Metabolic stability in human liver microsomes assessed as intrinsic clearance incubated for 1 hr by LC-MS/MS analysis; type: ADME, Microsome; details: read-out: CLH
# HCT-15 = experiment: Antiproliferative activity against human HCT-15 cells assessed as cell growth inhibition measured after 72 hrs by CellTiter-Glo assay; type: functional
# [15] = AUC (0 to infinity) in Sprague-Dawley rat at 10 mg/kg, po by LC-MS/MS analysis; type: ADME, organism-based; set-up: time infinity, dose 10 mg/kg, route po; details: in vivo
# MV4-11 [16] = experiment: Induction of cell cycle arrest in human MV4-11 cells assessed as accumulation of cells at G2/M phase at 100 nM incubated for 48 hrs by propidium iodide staining based flow cytometric analysis (reference value: 8%); type: functional
# [17] = Induction of cell apoptosis in human MV4-11 cells assessed as late apoptotic cells at 1000 nM incubated for 48 hrs by Annexin V-FITC/Propidium iodide staining based flow cytometry analysis (reference value: 1.99%); type: functional
# MV4-11 [18] = experiment: Antitumor activity against human MV4-11 cells xenografted BALB/c nude mouse model assessed as tumor growth inhibition at 40 mg/kg, po QD administered for 28 consecutive days; type: functional; details: MV4-11, 672 h, time 28 day, read-out: TGI
# [19] = Metabolic stability in dog liver microsomes assessed as intrinsic clearance incubated for 1 hr by LC-MS/MS analysis; type: ADME, Canis lupus familiaris, Microsome; details: read-out: CLH
# [20] = Half life in Sprague-Dawley rat at 1 mg/kg, iv by LC-MS/MS analysis; type: ADME, organism-based; details: in vivo
# MDA-MB-468 = experiment: Antiproliferative activity against human MDA-MB-468 cells assessed as cell growth inhibition measured after 72 hrs by CellTiter-Glo assay; type: functional
# [21] = Metabolic stability in dog liver microsomes assessed as elimination half life incubated for 1 hr by LC-MS/MS analysis; type: ADME, Canis lupus familiaris, Microsome; details: read-out: beta t1/2
# [22] = Cmax in Sprague-Dawley rat at 10 mg/kg, po by LC-MS/MS analysis; type: ADME, organism-based; set-up: dose 10 mg/kg, route po; details: in vivo
# [23] = Metabolic stability in rat liver assessed as intrinsic clearance incubated for 1 hr by LC-MS/MS analysis; type: ADME, tissue-based; details: read-out: CLH
# CAKI-1 = experiment: Antiproliferative activity against human CAKI-1 cells assessed as cell growth inhibition measured after 72 hrs by CellTiter-Glo assay; type: functional
# [24] = Metabolic stability in rat liver microsomes assessed as intrinsic clearance incubated for 1 hr by LC-MS/MS analysis; type: ADME, Microsome; details: read-out: CLH
# MV4-11 [25] = experiment: Induction of cell cycle arrest in human MV4-11 cells assessed as accumulation of cells at G0/G1 phase at 100 nM incubated for 48 hrs by propidium iodide staining based flow cytometric analysis (reference value: 65.71%); type: functional
# MV4-11 [26] = experiment: Induction of cell cycle arrest in human MV4-11 cells assessed as accumulation of cells at S phase at 100 nM incubated for 48 hrs by propidium iodide staining based flow cytometric analysis (reference value: 26.29%); type: functional
# [27] = Induction of cell apoptosis in human MV4-11 cells assessed as early apoptotic cells at 1000 nM incubated for 48 hrs by Annexin V-FITC/Propidium iodide staining based flow cytometry analysis (reference value: 1.42%); type: functional
# MV4-11 [28] = experiment: Antitumor activity against human MV4-11 cells xenografted BALB/c nude mouse model assessed as tumor growth inhibition at 20 mg/kg, po QD administered for 28 consecutive days; type: functional; details: MV4-11, 672 h, time 28 day, read-out: TGI
# [29] = Induction of cell apoptosis in human MV4-11 cells assessed as […] cells at 200 nM incubated for 48 hrs by Annexin V-FITC/Propidium iodide staining based flow cytometry analysis (reference value: 96.6%); type: functional
# MV4-11 [30] = experiment: Antiproliferative activity against human MV4-11 cells assessed as cell growth inhibition incubated for 72 hrs by CellTiter-Glo assay; type: functional, cell-based; details: MV4-11, 72 h
# MV4-11 [31] = experiment: Induction of cell apoptosis in human MV4-11 cells assessed as upregulation of cleaved PARP level at 62.5 to 250 nM incubated for 24 hrs by Western blotting analysis; type: functional, cell-based; details: dose 62.5-250 nM
# [32] = Metabolic stability in monkey liver microsomes assessed as elimination half life incubated for 1 hr by LC-MS/MS analysis; type: ADME, Macaca mulatta, Microsome; details: rhesus monkey, read-out: beta t1/2
# MV4-11 [33] = experiment: Induction of cell cycle arrest in human MV4-11 cells assessed as accumulation of cells at G0/G1 phase at 200 nM incubated for 48 hrs by propidium iodide staining based flow cytometric analysis (reference value: 65.71%); type: functional
# UACC-62 = experiment: Antiproliferative activity against human UACC-62 cells assessed as cell growth inhibition measured after 72 hrs by CellTiter-Glo assay; type: functional
compound,measurement,setting,value
CC(=O)c1c(C)[nH]c(-c2nc3cc(N4CCN(C)CC4)ccc3[nH]2)c1-c1ccccc1,half-life,[1],4.04 h
same,bioavailability,[2],111%
same,Activity,MV4-11 [3],2.92%
same,GI50,HL-60(TB),261 nM
same,Activity,[4],76.4%
same,Tmax,[5],3.33 h
same,Activity,MV4-11 [6],Dde
same,Activity,[7],4.78%
same,CLint scaled,[8],23.8 mL/min/kg
same,Activity,MV4-11 [9],9.68%
same,Activity,[10],16.9%
same,Vd,[11],3.3 L/kg
same,Activity,[12],Non-Toxic
same,Activity,[13],5.31%
same,microsomal CLint,[14],7.03 µL/min/mg
same,GI50,HCT-15,261 nM
same,AUC(0-inf),[15],8050 ng·h/mL
same,Activity,MV4-11 [16],6.33%
same,Activity,[17],12.2%
same,inhibition in vivo at 40 mg/kg,MV4-11 [18],103%
same,microsomal CLint,[19],92.2 µL/min/mg
same,half-life,[20],1.86 h
same,GI50,MDA-MB-468,361 nM
same,half-life,[21],0.25 h
same,Cmax,[22],1270 ng/mL
same,CLint scaled,[23],37.6 mL/min/kg
same,GI50,CAKI-1,211 nM
same,microsomal CLint,[24],20.9 µL/min/mg
same,Activity,MV4-11 [25],75.41%
same,Activity,MV4-11 [26],18.26%
same,Activity,[27],39.3%
same,inhibition in vivo at 20 mg/kg,MV4-11 [28],48.7%
same,Activity,[29],89.7%
same,IC50,MV4-11 [30],15 nM
same,Activity,MV4-11 [31],Active
same,half-life,[32],1.42 h
same,Activity,MV4-11 [33],87.4%
same,GI50,UACC-62,274 nM
